How the values were obtained:
[1] = system: mouse IOP; experiment: Mouse IOP after topical application, invasive servo-null micropipette system (SNMS); format: in vivo, Black Swiss mice; conditions: after topical application
Summary of the method: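 Black Swiss outbred mice, 7-9 weeks, under i.p. ketamine plus topical proparacaine. Drugs applied topically as droplets with <2% DMSO (none for hydrophilic compounds) and 0.0005% benzalkonium chloride, 295-300 mOsm. IOP measured invasively by servo-null micropipette 10 min after a single application.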

[2] = target: T1, recombinant human A2B receptors (Homo sapiens, UniProt P29275); experiment: Radioligand binding to recombinant human A2B receptors; conditions: 10 μM
T1 sequence (P29275 1-332): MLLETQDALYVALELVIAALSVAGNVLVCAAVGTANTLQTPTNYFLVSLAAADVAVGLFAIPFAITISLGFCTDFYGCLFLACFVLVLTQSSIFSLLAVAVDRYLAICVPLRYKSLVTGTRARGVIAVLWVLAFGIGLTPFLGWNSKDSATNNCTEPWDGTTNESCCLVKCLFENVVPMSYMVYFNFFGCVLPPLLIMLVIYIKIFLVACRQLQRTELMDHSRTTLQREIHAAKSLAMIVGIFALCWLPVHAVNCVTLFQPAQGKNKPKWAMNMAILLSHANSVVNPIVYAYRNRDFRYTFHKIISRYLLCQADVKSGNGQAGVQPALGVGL

[3] = system: cultured human NPE cells; conditions: 10 μM adenosine; cited from earlier work
[4] = target: T2, human A1 receptors (Homo sapiens, UniProt P30542); conditions: literature; read-out: Ki for the binding to human A1 receptors; cited from earlier work
T2 sequence (P30542 1-326): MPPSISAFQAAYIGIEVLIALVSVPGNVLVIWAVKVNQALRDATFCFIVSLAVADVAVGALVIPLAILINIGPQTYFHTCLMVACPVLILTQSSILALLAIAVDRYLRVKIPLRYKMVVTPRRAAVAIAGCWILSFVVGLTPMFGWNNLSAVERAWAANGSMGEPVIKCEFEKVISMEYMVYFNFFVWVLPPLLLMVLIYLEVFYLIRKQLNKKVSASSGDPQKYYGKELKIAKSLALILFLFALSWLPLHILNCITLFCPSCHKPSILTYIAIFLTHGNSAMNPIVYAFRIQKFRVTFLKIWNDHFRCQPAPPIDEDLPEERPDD

displacement of radioligand binding [2]: did not displace radioligand binding
SMILES: CCOC(=O)C1=C(C)NC(c2ccccc2)=C(C(=O)OCc2ccccc2)C1C#Cc1ccccc1 (racemic) [MRS-1191, 3-ethyl 5-benzyl-2-methyl-6-phenyl-4-phenylethynyl-1,4-(±)-dihydropyridine-3,5-dicarboxylate]
time to begin to lower IOP, invasive servo-null technique [1]: within about a minute | effect of antagonist on adenosine-treated cells [3]: displayed no exponential shrinkage | Ki [4]: 40.1 µM

— patent US20090258836A1, “EFFECTIVE DELIVERY OF CROSS-SPECIES A3 ADENOSINE-RECEPTOR ANTAGONISTS TO REDUCE INTRAOCULAR PRESSURE” (The Trustees of The University of Pennsylvania, priority 2006, published 2009)
